# Reference: publication PMC11241527, “Long-Chain Alkylthio Cyclodextrin Derivatives for Modulation of Quorum-Sensing-Based Bioluminescence in Aliivibrio fischeri Model System” (International Journal of Molecular Sciences, 2024)
# Read-outs that look alike come from different tables or passages of the source.
# How the values were obtained:
# A. fischeri [1] = experiment: Bioluminescence inhibition assay in the Aliivibrio fischeri model system; format: cell-based; conditions: for EC20: 20% inhibition of bioluminescence after 120 min exposure; for inhibition at 2000 µM: read-out: inhibition of bioluminescence; for inhibitory effect on bioluminescence, upper limit in any case: any tested concentration and time, not statistically significant
# Procedure: The time- and concentration-dependent effect of native α- and β-CDs, their N,N,N-trimethyl-ammoniopropyl derivatives, and novel alkylthio derivatives were tested in a series of short-term (30–120 min) experiments at 0.008–10 mM concentration range. To differentiate between the quorum-quenching effect and the cytotoxic effect of the CDs, bioluminescence as well as cell viability (the population growth and the enzyme activity) were determined.
# (§1) The bacterial strain A. fischeri (NRRL B-111 77) was cultured and maintained in the laboratory under axenic circumstances. The 16 h old (overnight) cell culture applied for the tests was prepared by inoculating 30 mL of Photobacterium medium with an ampoule of lyophilized bacteria. The culture was shaken in the dark at 160 rpm, 24 °C, to an optical density of 0.6 at 600 nm (OD600).
# The tested CD molecules were suspended in sterile distilled water and sterilized in an autoclave. A dilution series was prepared from the stock solutions (suspensions), covering a 0.04–50 mM concentration range.
# The experiments were carried out with overnight A. fischeri cell culture in 96-well microtiter plates with a total volume of 250 µL. Fifty microliters of the members of the fivefold dilution series made from stock solutions were added to the wells of a sterile, transparent, 96-well, round-bottomed Sarstedt microtiter plate in four replicates. Distilled water was used as a negative control in the same volume.
# To ensure the validity of data and verify the sensitivity of the bacteria, a five-member CuSO4 dilution series (1.6 ppm, 8 ppm, 40 ppm, 200 ppm, and […]) was used as a positive control. After that, 200 μL of the diluted overnight culture was added to the wells, except for the blank samples, for which 200 μL of Photobacterium medium was added instead.
# The bioluminescence intensity was measured with a Fluostar Optima microplate reader (BMG Labtech, Ortenberg, Germany; fluorescence detection limit > 30 amol/well ATP) after 30, 60, and 120 min of exposure. The evaluation of the results was carried out as described by Ujaczki et al. (2015).
# The determination of the concentration–response relationship is a method employed in the field of environmental toxicology, with the objective of objectively assessing the effects of different chemicals. The effective concentration endpoints (EC20 and EC50 values) of the tests are uniformly used for the quantification and comparison of the effects of chemicals and environmental matrices.
# A. fischeri [2] = experiment: Optical density measurement, population growth assay; format: cell-based, Aliivibrio fischeri; conditions: for inhibition at 10000 µM: 10 mM; for inhibition at 2000 µM: 2 mM, read-out: inhibition of cell proliferation (population growth), maximum; for inhibition of population growth (optical density): within 30, 60 and 120 min, regardless of the concentration
# Procedure: as §1
# The measurements were carried out as described by Molnár et al. (2021). The OD was measured after the incubation period, following the bioluminescence inhibition assay with DIALAB ELx800 ELISA Microplate Reader (Dialab GmbH, Wiener Neudorf, Austria) at the wavelength of 630 nm.
# A. fischeri [3] = experiment: Cell viability, tetrazolium (MTT) reduction assay; format: cell-based, Aliivibrio fischeri; conditions: 120 min; for inhibitive effect on cell viability, maximum: 0.08 mM; for inhibition in the viability: 10 mM
# Procedure: The cell viability assay characterizing the activity of the hydrogen transport (the dehydrogenase enzyme activity) is based on the spectrophotometric measurement of the absorbance of a formazan product of the reduction in the tetrazolium salts.
# The absorbance—which we determined after 120 min of exposure—is directly proportional to the metabolic activity of the cells.
# To examine the potential influence of the CDs on the vitality of the bacteria, an enzyme activity assay was applied using 3-(4,5-dimethylthiazol-2-yl)-2,5-diphenyltetrazolium bromide (MTT).
# Metabolically active cells reduce the […] MTT into a black formazan product, whose concentration is directly proportional to the activity of the viable cells. Following the population growth assay, the assay was performed in the same microplates by adding 30 μL of 4 mg/mL sterile MTT solution to each well.
# The microtiter plate was then incubated for 30 min until color development.
# [4] = Solubility in water at 25 °C; format: physicochemical; conditions: for solubility: read-out: WS, water solubility
# Procedure: The characteristics: abbreviations (A), the molecular weight (MW), the solubility in water at 25 °C (WS), and the degree of substitution (DS) of the tested CDs are presented in Table 4 and Table 5.
# A. fischeri [5] = test system: A. fischeri; design: method as in PMID 33321169; conditions: cited from earlier work
# [6] = Aggregation studies by dynamic light scattering (volume particle size distribution); format: physicochemical; conditions: 1% aqueous solution, 25 °C
# Procedure: Most CDs are prone to aggregation in aqueous solution due to their numerous hydroxyl moieties.
# The aggregation behavior (nanoparticle formation) was studied by photon correlation spectroscopy (dynamic light scattering) using Malvern Zetasizer Nano ZS (Malvern Instruments, Malvern, UK) equipment at 25 °C using 1% aqueous solution.
# [7] = Aliivibrio fischeri, 0.5 h, 30 min
# [8] = Aliivibrio fischeri, 1 h, 60 min
# [9] = Aliivibrio fischeri, 2 h, 120 min
compound,measurement,setting,value
"CCCCCCCCCCCCSC[C@H]1O[C@@H]2O[C@H]3[C@H](O)[C@@H](O)[C@@H](O[C@H]4[C@H](O)[C@@H](O)[C@@H](O[C@H]5[C@H](O)[C@@H](O)[C@@H](O[C@H]6[C@H](O)[C@@H](O)[C@@H](O[C@H]7[C@H](O)[C@@H](O)[C@@H](O[C@H]1[C@H](O)[C@H]2O)O[C@@H]7CO)O[C@@H]6CO)O[C@@H]5CO)O[C@@H]4CO)O[C@@H]3CO [6S-C12-α-CD (3), 6-monodeoxy-6-monododecanethiol-α-CD]",decrease in bioluminescence intensity,"A. fischeri [1]; 0.4 mM, 120 min",71%
same,decrease in bioluminescence intensity,"A. fischeri [1]; 10 mM, 120 min",79%
same,EC20,A. fischeri [1],60 µM
same,EC50,"A. fischeri [1]; Aliivibrio fischeri, 2 h",160 µM
same,inhibition at 2000 µM,"A. fischeri [1]; Aliivibrio fischeri, 2 h",85%
same,inhibition at 10000 µM,A. fischeri [2]; [7],50%
same,inhibition at 10000 µM,A. fischeri [2]; [8],54%
same,inhibition at 10000 µM,A. fischeri [2]; [9],59%
same,"decrease in cell viability, maximum",A. fischeri [3]; at 2 and 10 mM,40%
same,solubility,[4],> 10000 µg/mL
"CCCCCCCCCCCCSC[C@H]1O[C@@H]2O[C@H]3[C@H](O)[C@@H](O)[C@@H](O[C@H]4[C@H](O)[C@@H](O)[C@@H](O[C@H]5[C@H](O)[C@@H](O)[C@@H](O[C@H]6[C@H](O)[C@@H](O)[C@@H](O[C@H]7[C@H](O)[C@@H](O)[C@@H](O[C@H]8[C@H](O)[C@@H](O)[C@@H](O[C@H]1[C@H](O)[C@H]2O)O[C@@H]8CO)O[C@@H]7CO)O[C@@H]6CO)O[C@@H]5CO)O[C@@H]4CO)O[C@@H]3CO [6S-C12-β-CD (7), 6-monodeoxy-6-monododecanethiol-β-CD]",EC20,A. fischeri [1],90 µM
same,inhibition at 2000 µM,"A. fischeri [1]; Aliivibrio fischeri, 0.5 h",77%
same,inhibition at 2000 µM,"A. fischeri [1]; Aliivibrio fischeri, 1 h",76%
same,EC50,"A. fischeri [1]; Aliivibrio fischeri, 2 h",760 µM
same,inhibition at 2000 µM,"A. fischeri [1]; Aliivibrio fischeri, 2 h",70%
same,inhibition at 2000 µM,A. fischeri [2]; [7],72%
same,inhibition at 2000 µM,A. fischeri [2]; [8],69%
same,inhibition at 2000 µM,A. fischeri [2]; [9],65%
same,vitality-reducing effect (cell viability),A. fischeri [3]; 2 mM,41%
same,solubility,[4],> 10000 µg/mL
"OC[C@H]1O[C@@H]2O[C@H]3[C@H](O)[C@@H](O)[C@@H](O[C@H]4[C@H](O)[C@@H](O)[C@@H](O[C@H]5[C@H](O)[C@@H](O)[C@@H](O[C@H]6[C@H](O)[C@@H](O)[C@@H](O[C@H]7[C@H](O)[C@@H](O)[C@@H](O[C@H]8[C@H](O)[C@@H](O)[C@@H](O[C@H]1[C@H](O)[C@H]2O)O[C@@H]8CO)O[C@@H]7CO)O[C@@H]6CO)O[C@@H]5CO)O[C@@H]4CO)O[C@@H]3CO [β-CD (5), Native β-CD, reference compound]","inhibitory effect on bioluminescence, upper limit in any case",A. fischeri [1],≤ 35%
same,inhibition at 80 µM,"A. fischeri [2]; Aliivibrio fischeri, 0.5 h, read-out: inhibition of population growth, maximum",≤ 34%
same,"inhibitive effect on cell viability, maximum",A. fischeri [3],15%
OC[C@H]1O[C@@H]2O[C@H]3[C@H](O)[C@@H](O)[C@@H](O[C@H]4[C@H](O)[C@@H](O)[C@@H](O[C@H]5[C@H](O)[C@@H](O)[C@@H](O[C@H]6[C@H](O)[C@@H](O)[C@@H](O[C@H]7[C@H](O)[C@@H](O)[C@@H](O[C@H]8[C@H](O)[C@@H](O)[C@@H](O[C@H]9[C@H](O)[C@@H](O)[C@@H](O[C@H]1[C@H](O)[C@H]2O)O[C@@H]9CO)O[C@@H]8CO)O[C@@H]7CO)O[C@@H]6CO)O[C@@H]5CO)O[C@@H]4CO)O[C@@H]3CO [γ-CD],quorum-quenching efficacy (reduction of bacterial bioluminescence),A. fischeri [5]; previous study,ineffective
"N,N,N-Trimethylammoniopropyl-6-monodeoxy-6-monodecanethiol-α-CD [QA-6S-C10-α-CD (4)]",reduction of bioluminescence,"A. fischeri [1]; 1 mM, 120 min",69%
same,EC20,A. fischeri [1],200 µM
same,EC50,"A. fischeri [1]; 50% inhibition of bioluminescence after 120 min exposure, read-out: EC50",240 µM
same,inhibition of population growth (optical density),A. fischeri [2],up to 30%
same,inhibition of the enzyme activity (cell viability),A. fischeri [3]; regardless of concentration,24–27%
"N,N,N-Trimethylammoniopropyl-6-monodeoxy-6-monohexadecanethiol-β-CD [QA-6S-C16-β-CD (9)]","inhibitory effect (QS inhibition, bioluminescence)","A. fischeri [1]; 1 mM, time not stated",48%
same,EC20,A. fischeri [1],170 µM
same,inhibition of population growth,"A. fischeri [2]; 5 mM, 120 min",38%
same,inhibition of cell viability,A. fischeri [3]; 5 mM,35%
same,"WS, water solubility",[4],~10000 µg/mL
same,average size of larger aggregates,[6],111 nm
same,size of larger aggregates with high polydispersity,[6],50–500 nm
"N,N,N-Trimethylammoniopropyl-α-CD [QA-α-CD (2), reference compound]",EC20,A. fischeri [1],3140 µM
same,inhibition of bioluminescence (significance),"A. fischeri [1]; tested concentrations 0.08-10 mM, examined period 30-120 min",no significant inhibition
same,inhibition of population growth (optical density),A. fischeri [2],up to 30%
same,inhibition in the viability,A. fischeri [3],41%
"N,N,N-Trimethylammoniopropyl-β-CD [QA-β-CD (6), reference compound]","inhibitory effect on bioluminescence, upper limit in any case",A. fischeri [1],≤ 35%
same,"inhibition of population growth, maximum","A. fischeri [2]; 0.08 mM, 30 min of exposure",≤ 34%
same,"inhibitive effect on cell viability, maximum",A. fischeri [3],10%
same,"WS, water solubility",[4],>500000 µg/mL
"Native α-CD [α-CD (1), reference compound]",inhibition of bioluminescence (significance),A. fischeri [1],no significant inhibition
same,EC20,A. fischeri [1],80 µM
same,inhibition of population growth (optical density),A. fischeri [2],up to 30%
same,inhibition in the viability,A. fischeri [3],29%
same,inhibition of bioluminescence,"A. fischeri [5]; 10 mM, 120 min exposure time",over 60%
